# Tests used:
# human NQO1 p.P187S = biological target: T1, human NQO1 p.P187S (Homo sapiens, UniProt P15559, P187S); assay: Differential scanning fluorimetry (FAD release on thermal denaturation); type: binding
# T1 construct: hexahistidine; made in house; host or cells: Escherichia coli
# human wild-type NQO1 [1] = biological target: T2, human wild-type NQO1 (Homo sapiens, UniProt P15559)
# human NQO1 p.R139W [2] = biological target: T3, human NQO1 p.R139W (Homo sapiens, UniProt P15559, R139W)
# T3 sequence (P15559 whole entry R139W): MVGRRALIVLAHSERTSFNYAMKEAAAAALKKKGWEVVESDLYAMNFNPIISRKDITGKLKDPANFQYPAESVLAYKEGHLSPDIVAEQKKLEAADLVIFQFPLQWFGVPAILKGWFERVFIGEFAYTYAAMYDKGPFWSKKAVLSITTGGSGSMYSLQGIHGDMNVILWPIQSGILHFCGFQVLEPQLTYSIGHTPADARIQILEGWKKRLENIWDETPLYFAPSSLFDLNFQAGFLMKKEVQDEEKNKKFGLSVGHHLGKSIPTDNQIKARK
# human wild-type NQO1 [3] = biological target: T2, human wild-type NQO1; assay: biochemical
# human NQO1 p.R139W [4] = biological target: T3, human NQO1 p.R139W; assay: biochemical
# human wild-type NQO1 [5] = biological target: T2, human wild-type NQO1; assay: Differential scanning fluorimetry (FAD release on thermal denaturation); type: binding; set-up: hexahistidine; made in house; host or cells: Escherichia coli; conditions: for effect on stability towards thermal denaturation (ΔTm): wild-type NQO1, concentration-dependent
# human NQO1 p.R139W [6] = biological target: T3, human NQO1 p.R139W; assay: as above; type: binding; set-up: hexahistidine; made in house; host or cells: Escherichia coli; conditions: for effect on stability towards thermal denaturation (ΔTm): p.R139W, concentration-dependent
# [7] = wild-type, Dixon and [S]/v plots (data not shown)
# T2 sequence (P15559 whole entry): as the sequence (P15559 whole entry R139W) above, with W139R counted along it
# T1 sequence (P15559 whole entry P187S): as the sequence (P15559 whole entry R139W) above, with W139R, P187S counted along it
Structure (SMILES),effect on stability towards thermal denaturation (ΔTm) (human NQO1 p.P187S),"type of inhibition (human wild-type NQO1 [1]; NQO1, Dixon and [S]/v plots)","Hill coefficient (h) (human wild-type NQO1 [1]; wild-type NQO1, no additional FAD, 70 μM DCPIP, 300 μM NADH, mean of three Hill plots ± SD)","Hill coefficient (h) (human NQO1 p.R139W [2]; p.R139W, no additional FAD, 70 μM DCPIP, 300 μM NADH, mean of three Hill plots ± SD)",Ki (human wild-type NQO1 [3]) [mM],Ki (human NQO1 p.R139W [4]) [mM],"Kd (human wild-type NQO1 [5]; wild-type NQO1 2 μM dimer, from ΔTm vs inhibitor concentration, HEPES-OH pH 7.3, read-out: KD,app) [mM]",effect on stability towards thermal denaturation (ΔTm) (human wild-type NQO1 [5]),"Kd (human NQO1 p.R139W [6]; p.R139W 2 μM dimer, from ΔTm vs inhibitor concentration, HEPES-OH pH 7.3, read-out: KD,app) [mM]",effect on stability towards thermal denaturation (ΔTm) (human NQO1 p.R139W [6]),type of inhibition with respect to NADH (human wild-type NQO1 [1]; [7]),type of inhibition with respect to NADPH (human wild-type NQO1 [1]; [7]),type of inhibition with respect to NADH (human NQO1 p.R139W [2]; p.R139W (data not shown)),type of inhibition with respect to NADPH (human NQO1 p.R139W [2]; p.R139W (data not shown))
"NC(=O)c1cccnc1 [Nicotinamide, nicotinamide]",no detectable effect,mixed,0.91 ± 0.06,0.92 ± 0.05,14 ± 4.34,13.5 ± 3.22,6 ± 0.9,stabilized,18.2 ± 5.2,stabilized,–,–,–,–
"Oc1ccc(/C=C/c2cc(O)cc(O)c2)cc1 [Resveratrol, resveratrol]",destabilised,–,–,–,0.375 ± 0.129,–,–,destabilised,–,destabilised,mixed,competitive,uncompetitive,mixed

# From article PMC6732362, “Cancer-associated variants of human NQO1: impacts on inhibitor binding and cooperativity” (Bioscience Reports, 2019)
